Data set [1] deals with T1, Tyrosine-protein kinase JAK1 (Homo sapiens, UniProt P23458). Nature of the data set: Inhibition of recombinant human GST-tagged cytoplasmic JAK1 catalytic domain (866 to 1154 residues) expressed in baculovirus expression system using 5FAM-KKSRGDYMTMQID as substrate in presence of 40 uM ATP by microfluidic assay.
Data set [2] has as its target T1, Tyrosine-protein kinase JAK1. Nature of the data set: Inhibition of recombinant human GST-tagged cytoplasmic JAK1 catalytic domain (866 to 1154 residues) expressed in baculovirus expression system using 5FAM-KKSRGDYMTMQID as substrate in presence of 1 mM ATP by microfluidic assay.
Data set [3] deals with Tyrosine-protein kinase JAK2 (Homo sapiens, UniProt O60674). Nature of the data set: Inhibition of recombinant human GST-tagged cytoplasmic JAK2 catalytic domain (809 to 1153+9 residues) expressed in baculovirus expression system using FITC-KGGEEEEYFELVKK as substrate in presence of 1 mM ATP by microfluidic assay.
Chain of Tyrosine-protein kinase JAK2 (O60674 whole entry, the tested form may be a part): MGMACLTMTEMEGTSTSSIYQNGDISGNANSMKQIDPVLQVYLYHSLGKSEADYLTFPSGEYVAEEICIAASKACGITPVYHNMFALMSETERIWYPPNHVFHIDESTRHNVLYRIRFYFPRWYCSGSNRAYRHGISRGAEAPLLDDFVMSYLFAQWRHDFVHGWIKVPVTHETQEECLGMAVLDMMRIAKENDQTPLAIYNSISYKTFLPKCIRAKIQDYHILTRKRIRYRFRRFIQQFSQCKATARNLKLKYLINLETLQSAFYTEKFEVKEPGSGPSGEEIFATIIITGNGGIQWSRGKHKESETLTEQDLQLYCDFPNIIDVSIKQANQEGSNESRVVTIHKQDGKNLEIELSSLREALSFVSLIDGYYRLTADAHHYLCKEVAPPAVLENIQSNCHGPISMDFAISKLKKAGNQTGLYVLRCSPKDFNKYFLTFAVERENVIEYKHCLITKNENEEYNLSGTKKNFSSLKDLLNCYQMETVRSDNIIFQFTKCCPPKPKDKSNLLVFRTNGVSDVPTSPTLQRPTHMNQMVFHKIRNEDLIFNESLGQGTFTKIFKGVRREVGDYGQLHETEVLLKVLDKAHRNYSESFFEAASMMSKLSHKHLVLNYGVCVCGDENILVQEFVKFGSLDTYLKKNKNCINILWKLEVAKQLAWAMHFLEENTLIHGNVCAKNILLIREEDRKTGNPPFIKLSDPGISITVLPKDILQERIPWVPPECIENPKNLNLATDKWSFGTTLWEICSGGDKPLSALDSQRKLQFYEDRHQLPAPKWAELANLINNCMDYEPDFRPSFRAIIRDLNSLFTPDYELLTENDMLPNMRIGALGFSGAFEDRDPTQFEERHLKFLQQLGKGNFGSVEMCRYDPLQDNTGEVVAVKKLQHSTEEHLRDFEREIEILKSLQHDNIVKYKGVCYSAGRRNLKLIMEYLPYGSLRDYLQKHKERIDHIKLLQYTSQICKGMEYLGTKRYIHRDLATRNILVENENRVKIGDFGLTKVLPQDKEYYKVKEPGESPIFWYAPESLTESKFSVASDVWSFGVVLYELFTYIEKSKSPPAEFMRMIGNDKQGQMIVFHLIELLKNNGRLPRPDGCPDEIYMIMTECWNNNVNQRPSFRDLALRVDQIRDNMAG
The target of data set [4] is Non-receptor tyrosine-protein kinase TYK2 (Homo sapiens, UniProt P29597). Nature of the data set: Inhibition of recombinant human His-tagged TYK2 expressed in baculovirus infected sf21 cells using 5FAM-KKSRGDYMTMQID as substrate in presence of 1 mM ATP by microfluidic assay.
Chain of Non-receptor tyrosine-protein kinase TYK2 (P29597 whole entry): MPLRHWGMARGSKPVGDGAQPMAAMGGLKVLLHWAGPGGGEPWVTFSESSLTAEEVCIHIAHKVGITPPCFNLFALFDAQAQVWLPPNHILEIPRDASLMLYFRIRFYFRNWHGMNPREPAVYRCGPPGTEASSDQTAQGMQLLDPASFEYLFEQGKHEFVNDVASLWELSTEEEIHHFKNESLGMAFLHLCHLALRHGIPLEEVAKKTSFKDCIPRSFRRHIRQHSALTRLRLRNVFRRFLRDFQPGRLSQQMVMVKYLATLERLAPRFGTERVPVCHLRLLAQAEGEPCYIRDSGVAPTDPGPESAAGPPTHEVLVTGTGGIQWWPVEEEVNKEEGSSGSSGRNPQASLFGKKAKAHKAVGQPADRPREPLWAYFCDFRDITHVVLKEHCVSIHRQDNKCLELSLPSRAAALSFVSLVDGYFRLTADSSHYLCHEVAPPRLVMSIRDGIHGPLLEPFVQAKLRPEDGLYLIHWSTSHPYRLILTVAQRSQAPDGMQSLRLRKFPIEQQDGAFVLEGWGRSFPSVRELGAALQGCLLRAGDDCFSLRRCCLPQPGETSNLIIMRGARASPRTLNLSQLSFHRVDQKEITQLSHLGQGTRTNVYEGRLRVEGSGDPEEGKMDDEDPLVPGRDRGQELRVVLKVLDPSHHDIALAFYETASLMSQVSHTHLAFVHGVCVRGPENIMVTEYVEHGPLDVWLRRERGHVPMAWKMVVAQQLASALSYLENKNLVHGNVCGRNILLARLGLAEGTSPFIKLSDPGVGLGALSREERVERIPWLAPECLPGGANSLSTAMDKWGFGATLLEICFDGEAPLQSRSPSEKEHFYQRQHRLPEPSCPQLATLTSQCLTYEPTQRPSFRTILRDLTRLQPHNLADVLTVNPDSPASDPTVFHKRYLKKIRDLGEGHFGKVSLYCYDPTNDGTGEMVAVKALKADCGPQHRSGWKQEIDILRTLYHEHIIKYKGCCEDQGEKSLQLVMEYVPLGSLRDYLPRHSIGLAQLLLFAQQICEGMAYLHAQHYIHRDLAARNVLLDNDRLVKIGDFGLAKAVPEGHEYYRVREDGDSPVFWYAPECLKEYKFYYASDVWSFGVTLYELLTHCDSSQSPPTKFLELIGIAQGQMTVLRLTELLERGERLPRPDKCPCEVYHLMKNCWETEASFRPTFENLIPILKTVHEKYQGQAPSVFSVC
Data set [5] can be described thus: Stability in human liver microsomes. The data set is classed as ADME, microsome. The settings on record: read-out: Stability. Background: Liver microsomes are a subcellular fraction often used to study metabolism.
Data set [6] in a line: Stability in rat liver microsomes. The data set is classed as ADME, microsome. Particulars: read-out: Stability.
Data set [7] is described as follows: Permeability in RRCK cells. The data set is classed as ADME, cell-based, Canis lupus familiaris, MDCKII-LE. The settings on record: dog, MDCK; read-out: permeability.
Data set [8] is described as follows: Half-life in human whole blood at 1 uM by LC-MS/MS analysis. Type of data set: ADME.
The nature of data set [9]: Half-life in Sprague-Dawley rat blood at 1 uM by LC-MS/MS analysis. Type of data set: ADME, tissue-based.
Data set [10] in a line: Clearance in rat in absence of CYP450 inhibitor ABT. Type of data set: ADME.
The nature of data set [11]: Clearance in rat in presence of CYP450 inhibitor ABT. The data set is classed as ADME. Particulars: with ABT (CYP450 inhibitor).
The test system of data set [12] is Mus musculus. Nature of the data set: Anti-inflammatory activity in po dosed sheep RBC-sensitized BALB/c mouse model of delayed-type hypersensitivity assessed as reduction in right hind foot pad thickness administered once daily for 7 days pretreated for 1 day followed by SRBC challenge and subsequent compound treatment for 6 days measured 24 hrs post SRBC rechallenge on day 6. The data set is classed as functional, organism-based.

Data set [13] deals with T2, Tyrosine-protein kinase JAK3 (Homo sapiens, UniProt P52333).
T2 sequence (P52333 whole entry): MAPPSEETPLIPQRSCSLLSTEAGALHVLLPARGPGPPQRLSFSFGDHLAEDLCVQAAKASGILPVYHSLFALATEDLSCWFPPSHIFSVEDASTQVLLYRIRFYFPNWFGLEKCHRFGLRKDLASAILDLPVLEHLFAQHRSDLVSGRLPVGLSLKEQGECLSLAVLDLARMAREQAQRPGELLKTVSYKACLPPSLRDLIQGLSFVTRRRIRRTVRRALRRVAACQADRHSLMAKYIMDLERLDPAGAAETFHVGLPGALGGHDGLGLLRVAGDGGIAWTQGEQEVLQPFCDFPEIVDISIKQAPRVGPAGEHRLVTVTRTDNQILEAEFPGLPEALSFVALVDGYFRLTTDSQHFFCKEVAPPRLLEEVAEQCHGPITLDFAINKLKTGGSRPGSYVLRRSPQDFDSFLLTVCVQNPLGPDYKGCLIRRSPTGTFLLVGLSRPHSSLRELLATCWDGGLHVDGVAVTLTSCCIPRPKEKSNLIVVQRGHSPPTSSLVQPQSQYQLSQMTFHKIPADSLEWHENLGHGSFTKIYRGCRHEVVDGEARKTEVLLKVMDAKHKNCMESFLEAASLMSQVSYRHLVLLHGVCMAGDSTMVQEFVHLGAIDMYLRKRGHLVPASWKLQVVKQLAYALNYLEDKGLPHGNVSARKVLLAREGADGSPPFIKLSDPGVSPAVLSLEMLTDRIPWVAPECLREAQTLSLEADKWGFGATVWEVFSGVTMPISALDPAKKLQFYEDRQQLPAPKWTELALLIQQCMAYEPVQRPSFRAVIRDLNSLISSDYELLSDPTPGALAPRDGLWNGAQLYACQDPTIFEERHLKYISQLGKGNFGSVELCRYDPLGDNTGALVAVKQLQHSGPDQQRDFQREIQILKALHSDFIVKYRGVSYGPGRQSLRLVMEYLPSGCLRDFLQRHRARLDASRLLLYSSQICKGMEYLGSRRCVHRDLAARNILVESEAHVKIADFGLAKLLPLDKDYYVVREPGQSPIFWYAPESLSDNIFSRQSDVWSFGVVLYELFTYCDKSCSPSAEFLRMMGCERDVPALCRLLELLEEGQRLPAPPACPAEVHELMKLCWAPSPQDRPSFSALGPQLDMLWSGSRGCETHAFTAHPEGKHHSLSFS
Nature of the data set: Inhibition of recombinant human GST-tagged cytoplasmic JAK3 catalytic domain (781 to 1124 residues) expressed in baculovirus expression system using FITC-KGGEEEEYFELVKK as substrate in presence of 4 uM ATP by microfluidic assay.

For data set [14], the target named is T2, Tyrosine-protein kinase JAK3. Nature of the data set: Inhibition of recombinant human GST-tagged cytoplasmic JAK3 catalytic domain (781 to 1124 residues) expressed in baculovirus expression system using FITC-KGGEEEEYFELVKK as substrate in presence of 1 mM ATP by microfluidic assay.
Data set [15] shares this target. Nature of the data set: Inhibition of JAK3 in human whole blood assessed as inhibition of IL-15 induced STAT5 phosphorylation preincubated for 45 mins followed by IL-15 addition and measured after 15 mins by Alexa Fluor 647 staining based flow cytometric analysis. (In general: In flow cytometry, cells or beads pass a laser one at a time.)
Data set [16] has the same target. Nature of the data set: Inhibition of JAK3 in human PBMC assessed as inhibition of IL-15 induced STAT5 phosphorylation preincubated for 75 mins followed by IL-15 addition and measured after 15 mins by Alexa Fluor 647 staining based flow cytometry.
Data set [17] is described as follows: Stability in human whole blood assessed as GST-mediated clearance by measuring half-life at 1 uM by LC-MS/MS analysis. The data set is classed as ADME.
Data set [18] deals with Mus musculus. Nature of the data set: Anti-inflammatory activity in sheep RBC-sensitized BALB/c mouse model of delayed-type hypersensitivity assessed as reduction in right hind foot pad thickness at 30 mg/kg, po administered twice daily for 7 days pretreated for 1 day followed by SRBC challenge and subsequent compound treatment for 6 days measured 24 hrs post SRBC rechallenge on day 6. Type of data set: functional, organism-based.

Calls of active or inactive are those of the source. No cut-off for these calls is given here.

T1 sequence (P23458 whole entry, the tested form may be a part): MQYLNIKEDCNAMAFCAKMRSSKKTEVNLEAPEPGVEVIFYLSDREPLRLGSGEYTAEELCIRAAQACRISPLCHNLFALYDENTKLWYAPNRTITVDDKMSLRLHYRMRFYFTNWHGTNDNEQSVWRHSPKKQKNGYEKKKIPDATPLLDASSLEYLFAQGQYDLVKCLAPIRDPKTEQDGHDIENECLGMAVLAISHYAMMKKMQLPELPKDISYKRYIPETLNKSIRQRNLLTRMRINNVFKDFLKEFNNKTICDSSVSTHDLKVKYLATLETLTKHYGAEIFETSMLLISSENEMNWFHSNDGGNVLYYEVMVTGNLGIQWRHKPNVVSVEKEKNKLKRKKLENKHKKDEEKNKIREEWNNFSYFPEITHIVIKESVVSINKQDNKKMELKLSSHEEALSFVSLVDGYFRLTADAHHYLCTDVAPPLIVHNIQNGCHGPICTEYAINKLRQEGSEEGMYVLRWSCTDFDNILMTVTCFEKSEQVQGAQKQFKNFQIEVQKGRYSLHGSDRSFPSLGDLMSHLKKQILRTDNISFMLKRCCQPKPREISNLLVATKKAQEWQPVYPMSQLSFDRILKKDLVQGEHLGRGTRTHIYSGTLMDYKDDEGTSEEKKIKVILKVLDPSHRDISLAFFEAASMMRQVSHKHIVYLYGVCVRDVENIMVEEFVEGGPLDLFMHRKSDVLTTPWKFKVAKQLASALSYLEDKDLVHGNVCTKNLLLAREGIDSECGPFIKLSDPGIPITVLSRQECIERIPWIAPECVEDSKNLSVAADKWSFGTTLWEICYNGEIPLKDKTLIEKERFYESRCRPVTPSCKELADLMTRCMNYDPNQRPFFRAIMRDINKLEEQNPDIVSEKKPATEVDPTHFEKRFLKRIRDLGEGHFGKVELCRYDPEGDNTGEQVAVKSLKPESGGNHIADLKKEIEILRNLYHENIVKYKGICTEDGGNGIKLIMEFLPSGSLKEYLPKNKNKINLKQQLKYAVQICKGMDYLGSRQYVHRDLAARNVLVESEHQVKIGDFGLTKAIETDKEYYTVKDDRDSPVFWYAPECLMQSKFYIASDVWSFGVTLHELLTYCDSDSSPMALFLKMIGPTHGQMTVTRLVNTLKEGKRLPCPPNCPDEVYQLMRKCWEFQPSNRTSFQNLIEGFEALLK

One may read the IC50 as the concentration at which inhibition is half-maximal. By half-life is commonly meant the time in which the quantity being followed falls by half. As a reminder, the clearance is the volume of plasma or blood freed of the substance per unit of time. Regarding `C=CC(=O)N1CC[C@H]2CCN(c3ncnc4[nH]ccc34)[C@H]2C1`, the IC50 in data set [1] was 984 nM; in [2] it was > 10000 nM; in data set [3] it was > 10000 nM; in data set [4], > 10000 nM. Besides, the results for the microsomal CLint in data set [5] and in data set [6] were 12.2 µL/min/mg and 70 µL/min/mg, respectively. In addition, the Papp in data set [7] amounted to 20 ×10⁻⁶ cm/s. Also, the figures for the half-life at 1 µM in data set [8] and in data set [9] were 3.2 h and 2.73 h, respectively. Further, the clearance came out at 109 mL/min/kg in [10] and 81 mL/min/kg in data set [11]. Further, the Activity result in [12] is “Dose-dependent effect”.

On to `CC(=O)N1CC[C@H]2CCN(c3ncnc4[nH]ccc34)[C@H]2C1`, for which the half-maximal inhibitory concentration (IC50) in data set [13] was 372 nM; in data set [14], > 10000 nM; in data set [1] it was 863 nM; in data set [2], > 10000 nM; in data set [3] it was > 10000 nM; in data set [4], > 10000 nM. Also, the figures for the microsomal CLint in [5] and in [6] were < 8 µL/min/mg and 25 µL/min/mg, respectively. Moreover, the Papp in data set [7] came out at 16 ×10⁻⁶ cm/s. Further, the clearance is 76 mL/min/kg in data set [10] and 10 mL/min/kg in data set [11].

Turning to `C/C=C/C(=O)N1CCC[C@@H](Nc2ncnc3[nH]ccc23)C1`, the IC50 was 1610 nM in data set [13]; > 10000 nM in data set [14]; 2290 nM in [1]; > 10000 nM in data set [2]; > 10000 nM in data set [3]; > 10000 nM in data set [4].

As to `C=CC(=O)N1CCC[C@@H](Nc2ncnc3[nH]ccc23)C1`, the IC50 in data set [15] was 580 nM; in data set [14], 56 nM; in [1] it was 1400 nM; in data set [2], > 10000 nM; in data set [3], > 10000 nM; in [4] it was > 10000 nM. The half-inhibitory concentration (IC50) in data set [16] came to 107 nM. Also, the microsomal CLint was 8 µL/min/mg in data set [5] and < 15 µL/min/mg in data set [6]. The Papp in [7] was 8 ×10⁻⁶ cm/s. For the same compound, the half-life at 1 µM in data set [8] stood at 5.53 h; in [9], 1.63 h.

For the compound `C=CC(=O)N1CCC[C@@H](N(C)c2ncnc3[nH]ccc23)C1`, the IC50 is 18 nM in data set [13]; 3840 nM in [14]; 1150 nM in [1]; 7820 nM in data set [2]; > 10000 nM in data set [3]; > 10000 nM in data set [4].

Take `C=CC(=O)N1CCC[C@@H](Nc2ncnc3[nH]ccc23)[C@H]1C` (racemic): the IC50 in data set [14] was > 1000 nM. Moreover, in [17], the half-life at 1 µM is > 6 h.

As to `C=CC(=O)Nc1cccc(-c2ncnc3[nH]ccc23)c1`, the IC50 in data set [15] is 2280 nM; in data set [13], 0.3 nM; in [14], 29 nM; in data set [1] it was 966 nM; in data set [2], 8710 nM; in data set [3], > 10000 nM. Also, the values for the IC50 in data set [4] and in data set [16] were > 10000 nM and 32 nM, respectively.

With `C=CC(=O)N1CC[C@H](C)[C@@H](Nc2ncnc3[nH]ccc23)C1`, in data set [17], the half-life at 1 µM is > 5 h.

As to `C=CC(=O)N1CC[C@@H](C)[C@@H](N(C)c2ncnc3[nH]ccc23)C1`, the half-inhibitory concentration (IC50) was 1930 nM in data set [14]; 274 nM in data set [1]; 988 nM in data set [2]; 2030 nM in [3]; > 10000 nM in data set [4].

Regarding `C=CC(=O)N1C[C@@H](C)C[C@@H](Nc2ncnc3[nH]ccc23)C1` (single isomer, unassigned), in data set [17], the half-life at 1 µM is > 4.17 h.

`C[C@@H]1CCN(C(=O)CC#N)C[C@@H]1N(C)c1ncnc2[nH]ccc12`: the result in [18] was Active.
